Measured values reported in ChEMBL document CHEMBL1201862, “PubChem BioAssay data set” (2004).
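Five compound concentrations were applied to cells in 96-well plates for 48 hours; endpoints were derived by simple linear interpolation of the resulting dose-response curve. Abbreviation: GI50, concentration required for 50% inhibition of growth.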 The source made the active and inactive calls. No stated cut-off is given here; in the data, active = GI50 up to about 1.1 µM and inactive = higher.

What was measured:
Assay in all cases: NCI tumour cell line growth inhibition, 48 h
SW-620 = tested on: SW-620
MOLT-4 = tested on: MOLT-4
Malme-3M = tested on: Malme-3M
OVCAR-3 = tested on: OVCAR-3
BT-549 = tested on: BT-549
A498 = tested on: A498
RPMI-8226 = tested on: RPMI-8226
NCI-H23 = tested on: NCI-H23
DU-145 = tested on: DU-145
HCT-116 = tested on: HCT-116
A549 = tested on: A549
HCT-15 = tested on: HCT-15
NCI/ADR-RES = tested on: NCI/ADR-RES
U-251 = tested on: U-251
MCF7 = tested on: MCF7
UACC-257 = tested on: UACC-257
NCI-H226 = tested on: NCI-H226
IGROV-1 = tested on: IGROV-1
SF-268 = tested on: SF-268
SNB-19 = tested on: SNB-19
HL-60 = tested on: HL-60
SNB-75 = tested on: SNB-75
PC-3 = tested on: PC-3
786-0 = tested on: 786-0
CCRF-CEM = tested on: CCRF-CEM
M14 = tested on: M14
COLO 205 = tested on: COLO 205
HOP-62 = tested on: HOP-62
SK-MEL-5 = tested on: SK-MEL-5
OVCAR-4 = tested on: OVCAR-4
ACHN = tested on: ACHN
SK-OV-3 = tested on: SK-OV-3
RXF 393 = tested on: RXF 393
MDA-N = tested on: MDA-N
SK-MEL-28 = tested on: SK-MEL-28
UO-31 = tested on: UO-31
UACC-62 = tested on: UACC-62
Hs-578T = tested on: Hs-578T
HOP-92 = tested on: HOP-92
HCC 2998 = tested on: HCC 2998
SN12C = tested on: SN12C
T47D = tested on: T47D
K562 = tested on: K562
SF-295 = tested on: SF-295
LOX IMVI = tested on: LOX IMVI
SR = tested on: SR
KM12 = tested on: KM12
MDA-MB-435 = tested on: MDA-MB-435
CAKI-1 = tested on: CAKI-1
SF-539 = tested on: SF-539
MDA-MB-231 = tested on: MDA-MB-231
NCI-H522 = tested on: NCI-H522
TK-10 = tested on: TK-10
SK-MEL-2 = tested on: SK-MEL-2
NCI-H460 = tested on: NCI-H460
OVCAR-5 = tested on: OVCAR-5
OVCAR-8 = tested on: OVCAR-8
HT-29 = tested on: HT-29
EKVX = tested on: EKVX

C/C(=N\NC(=S)NC(C)(C)C)c1ccccn1
GI50 (SW-620): < 0.01 µM (active)
GI50 (MOLT-4): < 0.01 µM (active)
GI50 (Malme-3M): 2.83 µM (inactive)
GI50 (OVCAR-3): < 0.01 µM (active)
GI50 (BT-549): 3.1 µM (inactive)
GI50 (A498): 0.248 µM (active)
GI50 (RPMI-8226): < 0.01 µM (active)
GI50 (NCI-H23): < 0.0172 µM (active)
GI50 (DU-145): 1.69 µM (inactive)
GI50 (HCT-116): < 0.01 µM (active)
GI50 (A549): 0.248 µM (active)
GI50 (HCT-15): < 0.01 µM
GI50 (NCI/ADR-RES): < 0.01 µM (active)
GI50 (U-251): 0.0252 µM (active)
GI50 (MCF7): < 0.01 µM (active)
GI50 (UACC-257): < 0.01 µM (active)
GI50 (NCI-H226): 0.0675 µM (active)
GI50 (IGROV-1): < 0.01 µM (active)
GI50 (SF-268): 1.39 µM (inactive)
GI50 (SNB-19): 4.5 µM (inactive)
GI50 (HL-60): < 0.01 µM (active)
GI50 (SNB-75): 11.7 µM (inactive)
GI50 (PC-3): < 0.01 µM (active)
GI50 (786-0): < 0.0406 µM (active)
GI50 (CCRF-CEM): < 0.01 µM (active)
GI50 (M14): < 0.0314 µM (active)
GI50 (COLO 205): < 0.01 µM (active)
GI50 (HOP-62): < 0.0222 µM (active)
GI50 (SK-MEL-5): 0.153 µM (active)
GI50 (OVCAR-4): 4.1 µM (inactive)
GI50 (ACHN): < 0.01 µM (active)
GI50 (SK-OV-3): 0.305 µM (active)
GI50 (RXF 393): < 0.01 µM (active)
GI50 (MDA-N): 0.131 µM (active)
GI50 (SK-MEL-28): 3.66 µM (inactive)
GI50 (UO-31): 0.189 µM (active)
GI50 (UACC-62): 0.332 µM (active)
GI50 (Hs-578T): 1.12 µM (inactive)
GI50 (HOP-92): 0.342 µM (active)
GI50 (HCC 2998): 0.235 µM (active)
GI50 (SN12C): 0.295 µM (active)
GI50 (T47D): < 0.01 µM (active)
GI50 (K562): < 0.01 µM (active)
GI50 (SF-295): 0.589 µM (active)
GI50 (LOX IMVI): < 0.01 µM (active)
GI50 (SR): < 0.01 µM (active)
GI50 (KM12): 0.574 µM (active)
GI50 (MDA-MB-435): 1.52 µM (inactive)
GI50 (CAKI-1): < 0.0333 µM (active)
GI50 (SF-539): 1.88 µM (inactive)
GI50 (MDA-MB-231): < 0.0378 µM (active)
GI50 (NCI-H522): 0.191 µM (active)
GI50 (TK-10): 0.358 µM (active)
GI50 (SK-MEL-2): 0.408 µM (active)

CCC/C(Cl)=N\OC(=O)Nc1ccc(F)cc1
GI50 (SW-620): 7 µM (inactive)
GI50 (MOLT-4): 2.47 µM (inactive)
GI50 (Malme-3M): 6.87 µM (inactive)
GI50 (OVCAR-3): 5.24 µM (inactive)
GI50 (BT-549): 15.1 µM (inactive)
GI50 (NCI-H460): > 100 µM (inactive)
GI50 (A498): 16.9 µM (inactive)
GI50 (RPMI-8226): 6.01 µM (inactive)
GI50 (NCI-H23): 20.3 µM (inactive)
GI50 (DU-145): 17 µM (inactive)
GI50 (HCT-116): 16.7 µM (inactive)
GI50 (A549): 52.8 µM (inactive)
GI50 (HCT-15): 5.82 µM
GI50 (NCI/ADR-RES): 21.1 µM (inactive)
GI50 (U-251): 18.2 µM (inactive)
GI50 (OVCAR-5): 18.7 µM (inactive)
GI50 (MCF7): 20 µM (inactive)
GI50 (UACC-257): 16.7 µM (inactive)
GI50 (NCI-H226): 19.7 µM (inactive)
GI50 (IGROV-1): 17.3 µM (inactive)
GI50 (OVCAR-8): 25.4 µM (inactive)
GI50 (SF-268): 26.1 µM (inactive)
GI50 (SNB-19): 19.2 µM (inactive)
GI50 (HL-60): 1.87 µM (inactive)
GI50 (SNB-75): > 42.7 µM (inactive)
GI50 (PC-3): 17.3 µM (inactive)
GI50 (786-0): 6.5 µM (inactive)
GI50 (CCRF-CEM): 1.63 µM (inactive)
GI50 (HT-29): 28.3 µM (inactive)
GI50 (M14): 14.6 µM (inactive)
GI50 (COLO 205): 3.16 µM (inactive)
GI50 (HOP-62): 19.2 µM (inactive)
GI50 (SK-MEL-5): 13.3 µM (inactive)
GI50 (OVCAR-4): 16.9 µM (inactive)
GI50 (ACHN): 12.3 µM (inactive)
GI50 (SK-OV-3): > 45.1 µM (inactive)
GI50 (RXF 393): 18.4 µM (inactive)
GI50 (MDA-N): 16.3 µM (inactive)
GI50 (SK-MEL-28): 18.5 µM (inactive)
GI50 (UO-31): 17.7 µM (inactive)
GI50 (UACC-62): 13.6 µM (inactive)
GI50 (Hs-578T): 41.5 µM (inactive)
GI50 (HOP-92): 4.43 µM (inactive)
GI50 (HCC 2998): 17.6 µM (inactive)
GI50 (EKVX): 17.3 µM (inactive)
GI50 (SN12C): 16.7 µM (inactive)
GI50 (T47D): 7.24 µM (inactive)
GI50 (K562): 1.89 µM (inactive)
GI50 (SF-295): > 100 µM (inactive)
GI50 (LOX IMVI): 4.15 µM (inactive)
GI50 (SR): 2.18 µM (inactive)
GI50 (KM12): 20.6 µM (inactive)
GI50 (MDA-MB-435): 16.5 µM (inactive)
GI50 (CAKI-1): 1.91 µM (inactive)
GI50 (MDA-MB-231): 17.9 µM (inactive)
GI50 (NCI-H522): 1.87 µM (inactive)
GI50 (TK-10): 15.7 µM (inactive)
GI50 (SK-MEL-2): 18.2 µM (inactive)
